In patent US20090291971A1, “HETEROARYL ETHERS AND PROCESSES FOR THEIR PREPARATION” (Wyeth, priority 2007, published 2009):

Tests used:
Type in all cases: biochemical
[1] = biological target: PI3K alpha (Homo sapiens, UniProt P42336); assay: PI3 Kinase Assay (PI3K alpha)
Experimental: (§1) PI3-Kinase reactions were performed in […], pH 7, […], and 25 μM ATP, with diC8-PI(4,5)P2 (Echelon, Salt Lake City Utah) as substrate. Nunc 384 well black polypropylene fluorescent plates were used for PI3K assays. Reactions were quenched by the addition of EDTA to a final concentration of […]. Final reaction volumes were […]. For evaluation of PI 3-K inhibitors, 5 ng of enzyme and 2.5 μM of substrate was used per […] reaction volume, and inhibitor concentrations ranged from 100 μM to […]; the final level of DMSO in reactions never exceeded 2%. Reactions were allowed to proceed for one hour at 25° C. After 1 hour, GST-tagged GRP1 (general receptor for phosphoinositides) PH domain fusion protein was added to a final concentration of 100 nM, and BODIPY-TMRI(1,3,4,5)P4 (Echelon) was also added to a final concentration of 5 nM. Final sample volumes were 25 μl with a final DMSO concentration of 0.8%. Assay Plates were read on Perkin-Elmer Envision plate readers with appropriate filters for Tamra [BODIPY-TMRI(1,3,4,5)P4]. Data obtained were used to calculate enzymatic activity and enzyme inhibition by inhibitor compounds.

[2] = biological target: PI3K gamma (Homo sapiens, UniProt P48736); assay: PI3 Kinase Assay (PI3K gamma); conditions: 1 h
Chain of PI3K gamma (P48736 whole entry, species assumed): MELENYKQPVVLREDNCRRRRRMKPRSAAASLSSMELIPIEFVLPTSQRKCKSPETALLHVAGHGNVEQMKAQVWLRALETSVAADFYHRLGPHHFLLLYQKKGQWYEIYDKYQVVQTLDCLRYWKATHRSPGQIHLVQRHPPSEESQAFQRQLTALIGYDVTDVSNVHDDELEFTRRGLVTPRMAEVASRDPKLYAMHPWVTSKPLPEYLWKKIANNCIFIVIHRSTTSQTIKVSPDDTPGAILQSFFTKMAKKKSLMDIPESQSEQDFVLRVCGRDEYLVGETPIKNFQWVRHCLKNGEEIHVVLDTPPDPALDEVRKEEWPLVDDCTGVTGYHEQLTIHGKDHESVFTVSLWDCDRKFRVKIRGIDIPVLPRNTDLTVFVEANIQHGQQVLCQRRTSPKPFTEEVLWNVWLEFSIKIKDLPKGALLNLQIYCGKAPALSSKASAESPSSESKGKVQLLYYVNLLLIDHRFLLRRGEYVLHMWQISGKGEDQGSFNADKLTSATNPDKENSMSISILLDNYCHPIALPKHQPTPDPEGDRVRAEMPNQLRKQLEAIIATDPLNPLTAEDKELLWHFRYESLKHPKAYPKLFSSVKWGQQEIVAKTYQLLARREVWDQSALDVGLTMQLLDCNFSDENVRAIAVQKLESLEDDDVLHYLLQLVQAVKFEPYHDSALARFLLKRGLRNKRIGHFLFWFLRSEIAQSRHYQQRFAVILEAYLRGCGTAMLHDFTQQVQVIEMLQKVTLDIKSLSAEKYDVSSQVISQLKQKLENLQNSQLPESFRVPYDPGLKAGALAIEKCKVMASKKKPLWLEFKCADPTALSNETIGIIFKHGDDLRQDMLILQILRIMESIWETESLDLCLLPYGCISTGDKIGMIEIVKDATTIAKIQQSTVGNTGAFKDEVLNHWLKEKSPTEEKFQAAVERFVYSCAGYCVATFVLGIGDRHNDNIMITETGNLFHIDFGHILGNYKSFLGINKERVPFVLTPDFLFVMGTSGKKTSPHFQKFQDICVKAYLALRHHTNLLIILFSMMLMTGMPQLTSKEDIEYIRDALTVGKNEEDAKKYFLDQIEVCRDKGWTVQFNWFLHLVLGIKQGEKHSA
Experimental: as §1

[3] = biological target: T1, human recombinant MK2 (Homo sapiens, UniProt P49137); assay: MK2 kinase ELISA based assay
T1 construct: human recombinant MK2 (25 nM) containing residues 41 through 353
T1 sequence (P49137 41-353): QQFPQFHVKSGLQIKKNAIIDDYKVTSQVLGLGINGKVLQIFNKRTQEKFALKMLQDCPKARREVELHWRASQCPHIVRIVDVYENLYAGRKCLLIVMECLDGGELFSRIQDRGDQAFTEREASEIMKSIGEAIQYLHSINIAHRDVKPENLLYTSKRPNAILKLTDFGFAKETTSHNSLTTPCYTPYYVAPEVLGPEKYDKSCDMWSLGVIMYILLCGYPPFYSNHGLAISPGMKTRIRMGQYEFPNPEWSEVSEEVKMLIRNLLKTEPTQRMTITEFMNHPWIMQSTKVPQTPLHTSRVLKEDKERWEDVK
Experimental: MK2 kinase activity was assessed using human recombinant MK2 (25 nM) containing residues 41 through 353 in an ELISA based assay. The kinase reaction was performed on 96-well streptavidin coated plates using a biotinylated 16-mer peptide as a substrate derived from LSP1 in 20 mM Hepes pH7.4, 10 mM MgCl2, 3 mM DTT, 1 uM ATP, 0.01% Triton X100, 2% DMSO and various compound concentrations in a final volume of 100 ul. The reaction was stopped after 30 min incubation at room temperature with 50 ul of 0.5M EDTA and washed 6 times in PBS 0.05% Tween 20. Polyclonal anti phospho-LSP1 antibodies was then added to the plate along with a Goat anti-Rabbit antibody labeled with europium in 20 mM MOPS, 150 mM NaCl, 0.025% Tween 20, 0.02% gelatin, 1% BSA for 1 hour at room temperature. The plate was then washed 6 times in PBS 0.05% Tween 20 and enhancement solution from Perkin Elmer was added before counting on a Victor 2 reader from Perkin Elmer.

[4] = biological target: T2, human recombinant IRAK4 (Homo sapiens, UniProt Q9NWZ3); assay: IRAK4 kinase ELISA based assay
T2 construct: human recombinant IRAK4 (4 nM) containing residues 154 through 460
T2 sequence (Q9NWZ3 154-460): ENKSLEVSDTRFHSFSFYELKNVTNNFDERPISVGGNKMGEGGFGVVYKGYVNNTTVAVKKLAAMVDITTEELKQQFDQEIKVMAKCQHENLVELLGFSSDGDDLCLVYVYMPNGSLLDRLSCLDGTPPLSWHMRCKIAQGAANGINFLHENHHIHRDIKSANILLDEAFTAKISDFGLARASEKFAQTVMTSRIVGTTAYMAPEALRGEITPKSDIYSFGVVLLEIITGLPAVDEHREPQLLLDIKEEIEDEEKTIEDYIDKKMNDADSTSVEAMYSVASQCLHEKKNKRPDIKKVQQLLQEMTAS
Experimental: IRAK4 kinase activity was assessed using human recombinant IRAK4 (4 nM) containing residues 154 through 460 in an ELISA based assay. The kinase reaction was performed on 96-well streptavidin coated plates using a biotinylated 11-mer peptide derived from MK2 in 20 mM Hepes pH7.4, 10 mM MgCl2, 3 mM DTT, 600 uM ATP, 0.01% Triton X100, 5% DMSO and various compound concentrations in a final volume of 100 ul. The reaction was stopped after 60 min incubation at room temperature with 50 ul of 0.5M EDTA and washed 6 times in PBS 0.05% Tween 20. A Rabbit polyclonal anti-phospho-threonine antibody was then added to the plate along with a Goat anti-Rabbit antibody labeled with europium in 20 mM MOPS, 150 mM NaCl, 0.025% Tween 20, 0.02% gelatin, 1% BSA for 1 hour at room temperature. The plate was then washed 6 times in PBS 0.05% Tween 20 and enhancement solution from Perkin Elmer was added before counting on a Victor 2 reader from Perkin Elmer.

[5] = biological target: T3, recombinant human B-Raf (Homo sapiens, UniProt P15056); assay: B-Raf Kinase Assay
T3 construct: Flag; GST; purchased Upstate; host or cells: Sf21 insect cells
T3 sequence (P15056 whole entry): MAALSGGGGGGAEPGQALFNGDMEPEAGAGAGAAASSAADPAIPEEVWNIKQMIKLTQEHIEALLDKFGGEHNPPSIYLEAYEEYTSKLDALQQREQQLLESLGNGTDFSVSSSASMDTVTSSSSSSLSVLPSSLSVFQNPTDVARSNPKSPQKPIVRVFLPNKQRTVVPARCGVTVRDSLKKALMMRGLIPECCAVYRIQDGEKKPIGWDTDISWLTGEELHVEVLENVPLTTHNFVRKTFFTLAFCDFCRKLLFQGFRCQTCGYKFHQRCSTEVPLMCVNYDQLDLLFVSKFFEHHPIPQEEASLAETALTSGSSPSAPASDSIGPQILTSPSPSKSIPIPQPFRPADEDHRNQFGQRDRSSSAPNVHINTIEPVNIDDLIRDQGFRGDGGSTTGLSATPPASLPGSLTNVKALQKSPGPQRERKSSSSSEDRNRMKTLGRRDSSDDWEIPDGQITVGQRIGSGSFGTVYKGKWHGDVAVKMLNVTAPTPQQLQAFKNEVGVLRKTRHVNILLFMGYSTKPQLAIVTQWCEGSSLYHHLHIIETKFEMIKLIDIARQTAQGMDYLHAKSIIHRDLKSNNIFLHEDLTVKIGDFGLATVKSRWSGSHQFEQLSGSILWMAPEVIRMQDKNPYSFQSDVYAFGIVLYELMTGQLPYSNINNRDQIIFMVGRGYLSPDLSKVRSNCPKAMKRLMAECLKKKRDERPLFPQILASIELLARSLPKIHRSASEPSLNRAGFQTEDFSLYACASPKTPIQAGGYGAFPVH
Experimental: Reagents: Flag/GST-tagged recombinant human B-Raf produced in Sf21 insect cells (purchased from Upstate), human Mek-1-GST, non-active recombinant protein produced in E. coli (from Upstate); and a phospho-MEK1 specific poly-clonal Ab from Cell Signaling Technology (cat. #9121).
• B-Raf-1 is used to phosphorylate GST-MEK1. MEK1 phosphorylation is measured by a phospho-specific antibody (from Cell Signaling Technology, cat. #9121) that detects phosphorylation of two serine residues at positions 217 and 221 on MEK1.
1. Assay Dilution Buffer (ADB): 20 mM MOPS, pH 7.2, 25 mM β-glycerol phosphate, 5 mM EGTA, 1 mM sodium orthovanadate, 1 mM dithiothreitol, 0.01% Triton X-100. 2. Magnesium/ATP Cocktail: ADB solution (minus Triton X-100) plus 200 μM cold ATP and 40 mM magnesium chloride. 3. Active Kinase: Active B-Raf: used at 0.2 nM per assay point. 4. Non-active GST-MEK1: Use at 2.8 nM final concentration). 5. TBST-Tris (50 mM, pH 7.5), NaCl (150 mM), Tween-20 (0.05%)
7. Anti pMEK Ab (Upstate) 8. Anti-rabbit Ab/Europium conjugate (Wallac)
1. Add 25 μl of ADB containing B-Raf and Mek per assay (i.e. per well of a 96 well plate) 2. Add 25 μl of 0.2 mM ATP and 40 mM magnesium chloride in Magnesium/ATP Cocktail. 3. Incubate for 45 minutes at RT with occasional shaking. 4. Transfer this mixture to an anti-GST Ab coated 96 well plate (Nunc Immunosorb plates coated o/n with a-GST. Plate freshly washed 3× with TBS-T before use. 5. Incubate o/n at […] in cold room. 6. Wash 3× with TBST, add Anti-Phospho MEK1 (1:1000, dilution depends upon lot) 7. Incubate for 60 minutes at RT in a shaking incubator 8. Wash 3× with TBST, add Anti-rabbit Ab/Europium conjugate (Wallac) (1:500, dilution depends upon lot) 9. Incubate for 60 minutes at RT on a platform shaker. 10. Wash plate 3× with TBS-T 11. Add 100 ul of Wallac Delfia Enhancement Solution and shake for 10 minutes. 12. Read plates in Wallac Victor model Plate Reader. 13. Collect data analyze in Excel for single point and IC50 determinations.

Chain of PI3K alpha (P42336 whole entry, species assumed, the tested form may be a part): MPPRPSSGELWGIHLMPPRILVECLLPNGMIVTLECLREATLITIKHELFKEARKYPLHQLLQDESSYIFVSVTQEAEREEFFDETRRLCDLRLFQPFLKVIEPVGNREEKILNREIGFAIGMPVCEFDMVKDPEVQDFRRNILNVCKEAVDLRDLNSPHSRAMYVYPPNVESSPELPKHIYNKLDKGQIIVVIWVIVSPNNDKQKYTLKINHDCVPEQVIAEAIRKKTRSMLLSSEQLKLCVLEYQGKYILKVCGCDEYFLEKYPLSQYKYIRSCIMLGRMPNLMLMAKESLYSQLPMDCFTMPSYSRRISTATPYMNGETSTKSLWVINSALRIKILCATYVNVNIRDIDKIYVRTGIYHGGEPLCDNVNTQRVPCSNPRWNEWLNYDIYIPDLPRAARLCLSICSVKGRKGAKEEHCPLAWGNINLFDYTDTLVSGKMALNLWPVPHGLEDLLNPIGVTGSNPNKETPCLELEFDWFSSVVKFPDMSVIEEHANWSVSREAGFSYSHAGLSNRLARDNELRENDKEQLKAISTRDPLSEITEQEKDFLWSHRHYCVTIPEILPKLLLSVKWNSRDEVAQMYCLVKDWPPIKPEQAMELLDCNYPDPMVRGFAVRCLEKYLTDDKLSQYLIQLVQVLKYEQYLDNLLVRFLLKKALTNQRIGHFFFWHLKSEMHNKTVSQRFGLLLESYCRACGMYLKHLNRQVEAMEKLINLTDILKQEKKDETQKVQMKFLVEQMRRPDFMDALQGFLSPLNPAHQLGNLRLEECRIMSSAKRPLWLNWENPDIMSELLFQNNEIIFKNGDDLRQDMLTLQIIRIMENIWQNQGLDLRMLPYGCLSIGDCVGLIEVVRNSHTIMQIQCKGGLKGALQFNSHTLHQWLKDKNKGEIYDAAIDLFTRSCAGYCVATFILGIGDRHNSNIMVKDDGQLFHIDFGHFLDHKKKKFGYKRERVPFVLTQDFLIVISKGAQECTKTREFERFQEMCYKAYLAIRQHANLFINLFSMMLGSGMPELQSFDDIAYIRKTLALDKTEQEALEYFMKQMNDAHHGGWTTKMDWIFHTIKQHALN
Chain of PI3K alpha (P27986 whole entry partner, species assumed, the tested form may be a part): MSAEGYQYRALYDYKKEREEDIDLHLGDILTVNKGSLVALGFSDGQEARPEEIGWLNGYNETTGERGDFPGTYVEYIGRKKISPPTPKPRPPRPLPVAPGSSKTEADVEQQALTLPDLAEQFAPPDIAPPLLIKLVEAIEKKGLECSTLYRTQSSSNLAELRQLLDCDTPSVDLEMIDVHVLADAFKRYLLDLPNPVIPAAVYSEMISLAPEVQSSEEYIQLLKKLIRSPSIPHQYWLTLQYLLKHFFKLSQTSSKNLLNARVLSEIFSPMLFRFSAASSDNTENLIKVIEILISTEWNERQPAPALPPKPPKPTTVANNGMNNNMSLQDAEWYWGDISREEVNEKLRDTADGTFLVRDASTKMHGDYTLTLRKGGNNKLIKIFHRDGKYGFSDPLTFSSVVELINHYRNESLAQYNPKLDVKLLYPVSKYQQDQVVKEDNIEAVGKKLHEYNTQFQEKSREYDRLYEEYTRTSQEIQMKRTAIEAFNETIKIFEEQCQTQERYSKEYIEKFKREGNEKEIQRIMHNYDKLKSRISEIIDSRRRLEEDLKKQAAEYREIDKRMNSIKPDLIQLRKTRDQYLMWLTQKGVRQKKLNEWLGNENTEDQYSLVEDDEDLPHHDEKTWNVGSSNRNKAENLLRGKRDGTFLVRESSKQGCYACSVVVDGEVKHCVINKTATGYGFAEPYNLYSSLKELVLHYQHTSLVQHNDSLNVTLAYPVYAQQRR

SMILES | inhibition at 30 µM [1] [%] | inhibition at 30 µM [2] [%] | inhibition at 30 µM [3] [%] | inhibition at 10 µM [4] [%] | inhibition at 10 µM [5] [%]
O=[N+]([O-])c1cccc(Oc2ncnc3ccccc23)c1 [Example 19, 4-(3-Nitrophenoxy)quinazoline] | 24 | < 10 | – | – | –
COc1ccc(Oc2ncnc3ccccc23)cc1 [Example 20, 4-(4-Methoxyphenoxy)quinazoline] | 65 | 4 | – | – | –
FC(F)(F)c1ccc(Oc2ncnc3ccccc23)cc1 [Example 21, 4-(4-(Trifluoromethyl)phenoxy)quinazoline] | 36 | 6 | – | – | –
CC(=O)c1ccc(Oc2ncnc3ccccc23)cc1 [Example 22, 1-(4-(Quinazolin-4-yloxy)phenyl)ethanone] | 34 | 45 | – | – | –
N#Cc1ccc(Oc2ncnc3ccccc23)cc1 [Example 24, 4-(Quinazolin-4-yloxy)benzonitrile] | 18 | < 10 | – | – | –
Clc1ccc(Oc2ncnc3ccccc23)cn1 [Example 25, 4-(6-Chloropyridin-3-yloxy)quinazoline] | 42 | 11 | 31 | 19 | 20
COc1ncccc1Oc1ncnc2ccccc12 [Example 28, 4-(2-Methoxypyridin-3-yloxy)quinazoline] | 22 | < 10 | – | – | –
c1ccc2c(Oc3ccc4[nH]ccc4c3)ncnc2c1 [Example 29, 4-(1H-Indol-5-yloxy)quinazoline] | 68 | 21 | – | – | 21
c1ccc2c(Oc3ccsc3)ncnc2c1 [Example 30, 4-(Thiophen-3-yloxy)quinazoline] | 87 | 55 | 34 | 39 | 14
N#Cc1cccc(Oc2ncnc3sccc23)c1 [Example 32, 3-(Thieno[2,3-d]pyrimidin-4-yloxy)benzonitrile] | 32 | < 10 | – | – | –
O=[N+]([O-])c1cccc(Oc2ncnc3sccc23)c1 [Example 34, 4-(3-Nitrophenoxy)thieno[2,3-d]pyrimidine] | 14 | < 10 | – | – | –
Cc1noc(C)c1Oc1ncnc2sccc12 [Example 35, 3,5-Dimethyl-4-(thieno[2,3-d]pyrimidin-4-yloxy)isoxazole] | 26 | 11 | – | – | –

More lines, now with the values ahead:

inhibition at 30 µM [1] [%] | inhibition at 30 µM [2] [%] | inhibition at 30 µM [3] [%] | inhibition at 10 µM [4] [%] | inhibition at 10 µM [5] [%] | SMILES
63 | 36 | – | – | – | COC(=O)c1sc2ncnc(Oc3ccccc3)c2c1C [Example 36, Methyl 5-methyl-4-phenoxythieno[2,3-d]pyrimidine-6-carboxylate]
24 | 16 | – | – | – | COC(=O)c1sc2ncnc(Oc3cccc([N+](=O)[O-])c3)c2c1C [Example 37, Methyl 5-methyl-4-(3-nitrophenoxy)thieno[2,3-d]pyrimidine-6-carboxylate]
40 | 23 | – | – | – | COC(=O)c1sc2ncnc(Oc3cccc(C#N)c3)c2c1C [Example 38, Methyl 4-(3-cyanophenoxy)-5-methylthieno[2,3-d]pyrimidine-6-carboxylate]
24 | 15 | 32 | 21 | – | COC(=O)c1sc2ncnc(Oc3c(C)noc3C)c2c1C [Example 39, Methyl 4-(3,5-dimethylisoxazol-4-yloxy)-5-methylthieno[2,3-d]pyrimidine-6-carboxylate]
44 | < 10 | – | – | – | COc1ncccc1Oc1ncc(Br)cn1 [Example 57, 5-Bromo-2-(2-methoxypyridin-3-yloxy)pyrimidine]
32 | < 10 | – | – | 17 | Cn1ccc(Oc2ccccc2)nc1=O [Example 58, 1-Methyl-4-phenoxypyrimidin-2(1H)-one]
46 | < 10 | – | – | – | COc1ncccc1Oc1ccn(C)c(=O)n1 [Example 59, 4-(2-Methoxypyridin-3-yloxy)-1-methylpyrimidin-2(1H)-one]
72 | 44 | – | – | – | CC(=O)c1ccccc1Oc1ncc(Br)cn1 [compound 44, 1-[2-(5-Bromo-pyrimidin-2-yloxy)-phenyl]-ethanone]
